In patent US20140121407A1, “DEUTERATED PHENYLPROPIONIC ACID DERIVATIVE” (RESEARCH FOUNDATION ITSUU LABORATORY, priority 2011, published 2014):
Where two headings read alike, the source gives them in different places.

Experiment: In vivo kinetic parameters in mouse after oral administration (plasma, LC/MS)
Conditions: for half-life: read-out: t½ (converted)
Description: 6-Week old ddY male mice were starved for 12 hours, and then used for the experiment. To the mice, Am80 (3.30 mg/kg), 3-[4-[(5,6,7,8-tetrahydro-5,5,8,8-tetramethyl-2-naphthalenyl)carbamoyl]phenyl]propionic acid (protium compound, M700, 3.56 mg/kg), or 3-[4-[(5,6,7,8-tetrahydro-5,5,8,8-tetramethyl-2-naphthalenyl)carbamoyl]phenyl]propionic acid-2,2,3,3-d4 (deuterated propionic acid derivative, Y616, 3.60 mg/kg) was orally administered (the dose in terms of molar amount was 9.4 μmol/kg for all the compounds). A 94 mM solution of each compound in DMSO was prepared, and suspended in 0.5% methylcellulose so as to be diluted 100 times, and the suspension was orally administered at a dose of 10 ml/kg by using a 1-ml syringe and a catheter for oral administration.
After 15 minutes, 30 minutes, 1 hour, 2 hours, 3 hours, 6 hours, 12 hours, and 24 hours from the administration of each compound, whole blood was collected from the mouse abdominal aorta under diethyl ether anesthesia by using a heparin-treated glass syringe and a 26G hypodermic needle (five mice were used for each compound). The collected blood was centrifuged at 13,700×g and 4° C. for 5 minutes to separate the plasma, and the separated plasma was stored at −30° C.
The plasma (100 μL) was put into a 1.5-ml tube, and added with ethyl acetate (400 μl), the mixture was stirred, ultrasonicated for 1 minute, and centrifuged at 13,700×g and 20° C. for 3 minutes, and the supernatant was collected. The residue was added with ethyl acetate (400 μl), and the mixture was subjected once again to the aforementioned procedure. The collected supernatant was put into a 1.5-ml tube in an appropriate volume, and dried with nitrogen gas. The residue was dissolved in methanol (100 μl) to obtain a sample for LC/MS.
All the samples were used for […] in a volume of 5 μl. The LC/MS apparatus used was constituted with Waters 2695 Separations Module (Nihon Waters) and 3100 Mass Detector (Nihon Waters). Each compound was quantified by the absolute calibration curve method.

[1] = Administration of M700, 3.56 mg/kg (9.4 μmol/kg) oral, ddY male mice, plasma, label = analyte measured
[2] = mouse, 3.3 mg/kg, Administration of AM80, 3.30 mg/kg (9.4 μmol/kg) oral, ddY male mice, plasma
[3] = mouse, 3.6 mg/kg, Administration of Y616, 3.60 mg/kg (9.4 μmol/kg) oral, ddY male mice, plasma, label = analyte measured
[4] = mouse, 3.6 mg/kg, Administration of Y616, 3.60 mg/kg (9.4 μmol/kg) oral, ddY male mice, plasma, label = analyte measured, read-out: AUC
[5] = mouse, 3.6 mg/kg, Administration of Y616, 3.60 mg/kg (9.4 μmol/kg) oral, ddY male mice, plasma, label = analyte measured, read-out: Tmax
[6] = mouse, Administration of M700, 3.56 mg/kg (9.4 μmol/kg) oral, ddY male mice, plasma, label = analyte measured
[7] = mouse, Administration of M700, 3.56 mg/kg (9.4 μmol/kg) oral, ddY male mice, plasma, label = analyte measured, read-out: AUC
[8] = mouse, Administration of M700, 3.56 mg/kg (9.4 μmol/kg) oral, ddY male mice, plasma, label = analyte measured, read-out: Tmax
[9] = oral, mouse, after administration of the labelled prodrug
[10] = oral, mouse, compared with the protium compound

4-[(5,6,7,8-tetrahydro-5,5,8,8-tetramethyl-2-naphthalenyl)carbamoyl]phenylcinnamic acid [Example M700-M1]
AUC [1]: 0.54 µM·h
Cmax [1]: 710 nM
Tmax [1]: 30 min
t½ [1]: 28.2 min

CC1(C)CCC(C)(C)c2cc(NC(=O)c3ccc(C(=O)O)cc3)ccc21 [Am80, 4-[(5,6,7,8-tetrahydro-5,5,8,8-tetramethyl-2-naphthalenyl)carbamoyl]benzoic acid]
Cmax [2]: 1870 nM
AUC (mouse, 3.3 mg/kg, Administration of AM80, 3.30 mg/kg (9.4 μmol/kg) oral, ddY male mice, plasma, read-out: AUC): 2.8 µM·h
Tmax (mouse, 3.3 mg/kg, Administration of AM80, 3.30 mg/kg (9.4 μmol/kg) oral, ddY male mice, plasma, read-out: Tmax): 30 min
half-life [2]: 48.6 min
Cmax [3]: 930 nM
AUC [4]: 3.48 µM·h
Tmax [5]: 60 min
half-life [3]: 133 min
Cmax [6]: 1060 nM
AUC [7]: 2.74 µM·h
Tmax [8]: 60 min
half-life [6]: 73.2 min

CC1(C)CCC(C)(C)c2cc(NC(=O)c3ccc(CCC(=O)O)cc3)ccc21 [Example M700, 3-[4-[(5,6,7,8-tetrahydro-5,5,8,8-tetramethyl-2-naphthalenyl)carbamoyl]phenyl]propionic acid]
Cmax [6]: 1620 nM
AUC [7]: 1.32 µM·h
Tmax [8]: 30 min
half-life [6]: 28.2 min

CC1(C)CCC(C)(C)c2cc(NC(=O)c3ccc(C(O)CC(=O)O)cc3)ccc21 (centres unmarked) [Example M700-M2, 3-[4-[(5,6,7,8-tetrahydro-5,5,8,8-tetramethyl-2-naphthalenyl)carbamoyl]phenyl]-3-hydroxypropionic acid]
Cmax [6]: 20 nM
AUC [7]: 0.02 µM·h
Tmax [8]: 30 min
half-life [6]: 25.8 min

[2H]C([2H])(C(=O)O)C([2H])([2H])c1ccc(C(=O)Nc2ccc3c(c2)C(C)(C)CCC3(C)C)cc1 [Example Y616, 3-[4-[(5,6,7,8-tetrahydro-5,5,8,8-tetramethyl-2-naphthalenyl)carbamoyl]phenyl]propionic acid-2,2,3,3-d4]
Cmax [3]: 1370 nM
AUC [4]: 1.95 µM·h
Tmax [5]: 30 min
half-life [3]: 49.8 min
metabolic intermediate M1 generated [9]: markedly decreased
metabolic intermediate M2 generated [9]: not observed
AUC of the prodrug [10]: increased
half-life (t½) of the prodrug [10]: extended
